Data: patent US9649285B2, “Treatment of medium-chain acyl-CoA dehydrogenase deficiency” (UNIVERSITY OF PITTSBURGH—OF THE COMMONWEALTH SYSTEM OF …, priority 2012, dated 2017)
Numbering of substitutions follows the chain as printed.

Columns and labels:
[1] = test system: extract from fibroblast cells deficient in MCAD (GM07844, homozygous K304E); experiment: ETF fluorescence reduction assay of cell extract, MCAD deficient fibroblasts; type: biochemical, human; conditions: similar amounts of extract
Procedure: (§1) Fibroblast Cell Culture and Extract Preparation.
(§2) Wild type and MCAD deficient cells (homozygous for the K304E mutation) with the designation GM085401 and GM07844, respectively, were obtained form Coriell Institute for Medical Research, Camden, N.J. Cells were cultured in DMEM medium supplemented with glutamine and ampicillin and streptomycin, and 20% fetal bovine serum. Cells were harvested from a T175 flask by sonication with a buffer consisting of 50 mM Tris buffer and 10 mM EDTA, pH 8.0. The cell debris was removed by centrifugation and the cell free extract was assayed for protein and enzyme activity as described below.
(§3) ETF Fluorescence Reduction Assay.
(§4) The ETF reduction assay was performed using a Jasco FP-6300 spectrofluorometer (Easton, Md.) with a cuvette holder heated with circulating water at 32° C. The assay was otherwise performed as described (22), at the indicated substrate concentrations. The enzyme was diluted 1200-fold into a buffer containing 50 mM Tris, pH 8.0, 5 mM EDTA and 50% glycerol, and […] were used for each assay. The ETF concentration in the reaction mixture was 2 μM. Spectra Manager 2 software (Jasco Inc) was used to collect data and calculate reaction rate and Microsoft Excel was used to calculate the kinetic parameters.

[2] = test system: extracts from wild type fibroblast cells (GM085401); experiment: ETF fluorescence reduction assay of cell extract, wild type fibroblasts; type: biochemical, human; conditions: 30 μM substrate
Procedure: as §1, §2, §3, §4

[3] = target: T1, partially purified recombinant human LCAD (Homo sapiens, UniProt P28330); experiment: ETF fluorescence reduction assay with LCAD; type: biochemical
T1 construct: made in house
T1 sequence (P28330 31-430): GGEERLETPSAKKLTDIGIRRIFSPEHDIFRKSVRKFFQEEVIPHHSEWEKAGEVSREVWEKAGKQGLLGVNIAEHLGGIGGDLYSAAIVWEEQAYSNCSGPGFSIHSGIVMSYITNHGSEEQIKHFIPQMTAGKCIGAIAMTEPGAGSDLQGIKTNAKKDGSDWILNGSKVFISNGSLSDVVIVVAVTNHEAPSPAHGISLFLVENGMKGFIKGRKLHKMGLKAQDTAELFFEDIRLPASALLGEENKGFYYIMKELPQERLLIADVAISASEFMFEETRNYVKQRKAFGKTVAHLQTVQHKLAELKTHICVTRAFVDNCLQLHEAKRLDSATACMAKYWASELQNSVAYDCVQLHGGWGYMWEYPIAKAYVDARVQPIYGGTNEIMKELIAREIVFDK

recombinant human MCAD = target: T2, recombinant human MCAD (Homo sapiens, UniProt P11310); experiment: ETF fluorescence reduction assay with purified MCAD (oxidative half-reaction); type: biochemical
T2 construct: made in house; host or cells: E. coli JM105, co-expressed with GroEL/GroES
T2 sequence (P11310 26-421): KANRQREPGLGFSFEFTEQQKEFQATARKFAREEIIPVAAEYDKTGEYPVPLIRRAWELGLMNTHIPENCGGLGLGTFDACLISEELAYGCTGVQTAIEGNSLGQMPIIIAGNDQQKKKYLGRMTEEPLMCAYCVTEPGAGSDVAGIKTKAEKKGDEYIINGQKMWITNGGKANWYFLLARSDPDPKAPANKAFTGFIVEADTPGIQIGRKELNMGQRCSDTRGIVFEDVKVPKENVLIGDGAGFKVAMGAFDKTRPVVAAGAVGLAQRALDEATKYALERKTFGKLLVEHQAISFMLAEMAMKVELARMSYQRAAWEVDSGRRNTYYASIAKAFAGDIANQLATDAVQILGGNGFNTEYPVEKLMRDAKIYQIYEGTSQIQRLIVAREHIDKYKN
Procedure: (§5) Purification of Recombinant Human MCAD.
(§6) Expression and purification of recombinant human MCAD was performed as previously described for isovaleryl-CoA dehydrogenase with minor modifications (18). E. coli JM105 cells (Amersham Biosciences Corp; Piscataway, N.J.) containing the human MCAD high expression vector pKeMCAD (19) and a GroEL/GroES expression plasmid were grown overnight in a 200-ml LB broth pre-culture that was used to inoculate 4×2-L cultures in 2-YT broth. The cells were left to grow overnight at 37° C. with shaking and MCAD expression was induced the next morning using IPTG at a final concentration of 0.5 mM for 3 hrs. Cells were harvested by centrifugation and resuspended at 4° C. in 2:1 weight to volume of 100 mM potassium phosphate pH 8.0, 150 mM EDTA. Cells were then lysed by sonication on ice. Including high amounts of EDTA in the cell lysis buffer can protect residues with groups, e.g., cysteine thiols and methionine sulfide groups, vulnerable to modification by oxygen reactive species generated during sonication cell suspension. This was effective in improving enzyme preparations resulting higher specific activity and consistent kinetic behavior. Cellular debris was removed by centrifugation first at 250,000×g for 60 minutes each. […]
(§7) ETF Fluorescence Reduction Assay. […]

[4] = target: T3, purified recombinant human MCAD (Homo sapiens, UniProt P11310); experiment: Formation of the charge transfer complex (reductive half-reaction), absorbance at 447/570 nm; type: binding; conditions: Stockell plot, substrate:subunit ratio 1:1; enzyme 25.2 μM; anaerobic, pH 8.0; read-out: apparent dissociation constant (KD app)
T3 construct: made in house; host or cells: E. coli JM105, co-expressed with GroEL/GroES
T3 sequence (P11310 26-421): T2 sequence (P11310 26-421)
Procedure: as §5
Expression and purification of recombinant human MCAD was performed as previously described for isovaleryl-CoA dehydrogenase with minor modifications (18). E. coli JM105 cells (Amersham Biosciences Corp; Piscataway, N.J.) containing the human MCAD high expression vector pKeMCAD (19) and a GroEL/GroES expression plasmid were grown overnight in a 200-ml LB broth pre-culture that was used to inoculate 4×2-L cultures in 2-YT broth. The cells were left to grow overnight at 37° C. with shaking and MCAD expression was induced the next morning using IPTG at a final concentration of 0.5 mM for 3 hrs. Cells were harvested by centrifugation and resuspended at 4° C. in 2:1 weight to volume of 100 mM potassium phosphate pH 8.0, 150 mM EDTA. Cells were then lysed by sonication on ice. […]
Formation of the charge transfer ternary complex was monitored by observing the increase in absorbance at the 570 nm area, concomitant with the decrease of absorbance at 447 nm area, of the purified MCAD in 120 mM potassium phosphate spectrum under anaerobic conditions using a Jasco V-650 Spectrophotometer. […] Ten seconds of equilibration time were allowed after mixing and the sample was scanned for UV/Visible light absorbance at 250 to 800 nm. […] The “apparent” productive-binding constant (Kd app) was calculated with the following equation: […]

Purified SCAD = target: T4, Purified SCAD (Homo sapiens, UniProt P16219); experiment: ETF fluorescence reduction assay with SCAD; type: biochemical
T4 construct: made in house
T4 sequence (P16219 25-412): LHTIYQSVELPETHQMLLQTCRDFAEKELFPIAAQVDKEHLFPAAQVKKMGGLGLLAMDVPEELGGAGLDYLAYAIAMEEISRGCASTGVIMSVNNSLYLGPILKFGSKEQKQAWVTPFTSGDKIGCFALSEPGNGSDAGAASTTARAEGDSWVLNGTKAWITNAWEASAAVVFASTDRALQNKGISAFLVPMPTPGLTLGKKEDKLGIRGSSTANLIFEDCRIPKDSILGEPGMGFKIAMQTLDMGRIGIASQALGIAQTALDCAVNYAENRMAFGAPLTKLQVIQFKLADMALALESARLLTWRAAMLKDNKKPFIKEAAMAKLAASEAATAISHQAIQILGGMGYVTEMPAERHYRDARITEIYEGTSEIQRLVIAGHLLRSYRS
Procedure: as §6, with “each. The final supernatant was dialyzed for 4 hours with vigorous stirring in 50 mM potassium phosphate pH 8.0, at 4° C.” for “each.”
as §7

Purified ACAD9 = target: T5, Purified ACAD9 (Homo sapiens, UniProt Q9H845); experiment: ETF fluorescence reduction assay with ACAD9; type: biochemical
T5 construct: made in house
T5 sequence (Q9H845 38-621): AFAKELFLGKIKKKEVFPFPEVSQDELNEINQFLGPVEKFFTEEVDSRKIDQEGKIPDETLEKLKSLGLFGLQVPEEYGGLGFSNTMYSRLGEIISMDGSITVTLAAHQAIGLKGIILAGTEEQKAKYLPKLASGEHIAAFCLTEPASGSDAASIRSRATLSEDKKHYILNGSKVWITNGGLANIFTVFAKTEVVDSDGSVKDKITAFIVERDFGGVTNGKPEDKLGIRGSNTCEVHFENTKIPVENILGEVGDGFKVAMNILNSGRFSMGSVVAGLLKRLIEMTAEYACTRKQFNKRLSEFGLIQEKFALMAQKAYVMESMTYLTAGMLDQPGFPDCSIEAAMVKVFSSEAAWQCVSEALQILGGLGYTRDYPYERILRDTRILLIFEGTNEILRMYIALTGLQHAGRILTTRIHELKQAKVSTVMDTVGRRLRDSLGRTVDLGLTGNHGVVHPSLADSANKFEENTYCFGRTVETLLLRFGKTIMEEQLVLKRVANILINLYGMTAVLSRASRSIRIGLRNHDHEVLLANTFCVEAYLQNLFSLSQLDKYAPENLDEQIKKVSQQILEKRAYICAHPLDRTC

MCAD K304E mutant = target: T6, MCAD K304E mutant (Homo sapiens, UniProt P11310, K329E); conditions: reported in ref. 27; cited from earlier work
T6 sequence (P11310 26-421 K329E): T2 sequence (P11310 26-421) with K304E

Compound | Enzyme specific activity [1] | Enzyme specific activity [2] | activity of LCAD with substrate [3] | activity of MCAD with substrate (recombinant human MCAD) | Kd [4] [nM] | activity of SCAD with substrate (Purified SCAD) | activity of ACAD9 with substrate (Purified ACAD9) | thermal stability of the MCAD K304E mutant (MCAD K304E mutant)
CCCCCCCCCCCCCCCC(=O)SCCNC(=O)CCNC(=O)[C@H](O)C(C)(C)COP(=O)(O)OP(=O)(O)OC[C@H]1O[C@@H](n2cnc3c(N)ncnc32)[C@H](O)[C@@H]1OP(=O)(O)O [palmitoyl-CoA] | 3.91 (±1.34) nmoles ETF reduced x min^−1 x mg^−1 | 9.10 (±2.13) nmoles ETF reduced x min^−1 x mg^−1 | – | – | – | – | – | –
CCCCCCCCCCCC(=O)SCCNC(=O)CCNC(=O)[C@H](O)C(C)(C)COP(=O)(O)OP(=O)(O)OC[C@H]1O[C@@H](n2cnc3c(N)ncnc32)[C@H](O)[C@@H]1OP(=O)(O)O [C12-CoA] | – | – | active | – | – | – | – | –
CC(C)CCCC(C)C(=O)SCCNC(=O)CCNC(=O)[C@H](O)C(C)(C)COP(=O)(O)OP(=O)(O)OC[C@H]1O[C@@H](n2cnc3c(N)ncnc32)[C@H](O)[C@@H]1OP(=O)(O)O (stereo partly drawn) [2,6-dimethylheptanoyl-CoA] | – | – | active | – | – | – | – | –
CC(C)(COP(=O)(O)OP(=O)(O)OC[C@H]1O[C@@H](n2cnc3c(N)ncnc32)[C@H](O)[C@@H]1OP(=O)(O)O)[C@@H](O)C(=O)NCCC(=O)NCCSC(=O)CCCc1ccccc1 [phenylbutyryl-CoA] | No activity | 3.41 (±0.53) nmoles ETF reduced x min^−1 x mg^−1 | not active | no activity | 2160 | no activity | no activity | –
CCCCCCCC(=O)SCCNC(=O)CCNC(=O)[C@H](O)C(C)(C)COP(=O)(O)OP(=O)(O)OC[C@H]1O[C@@H](n2cnc3c(N)ncnc32)[C@H](O)[C@@H]1OP(=O)(O)O [octanoyl-CoA] | No activity | 4.01 (±1.34) nmoles ETF reduced x min^−1 x mg^−1 | – | – | 120 | – | – | provide thermal stability
